Results on one compound are retold here after patent EP0590919A1, “Therapeutic agents for parkinson's disease” (KYOWA HAKKO KOGYO CO., LTD., priority 1992, dated 1994).

For data set [1], the system named is Rats with a 6-Hydroxydopamine-Induced Unilateral Lesion of the Nigrostriatal Dopamine Pathway. Description: Augmentation of apomorphine-induced contralateral rotation in 6-hydroxydopamine-lesioned rats. Conditions: test compound 1 mg/kg orally 30 minutes before apomorphine 0.1 mg/kg s.c.; 150 minutes. In kind it is in vivo. On the procedure: Then, the animals were anesthetized with sodium pentobarbital (30 mg/kg, i.p., Dainippon Pharm. Co., Ltd.) and the nigrostriatal pathway was lesioned by injection of 6-hydroxydopamine hydrobromide (8 µg, Sigma Co.) into the left medial forebrain bundle. 6-Hydroxydopamine hydrobromide was dissolved in physiological saline containing 0.05% L-ascorbic acid (Wako Pure Chem. Industries, Ltd.) to make 2 µl of solution and injected over 3 minutes.
More than 10 days after surgery, each rat was placed in a plastic bowl (30 cm in diameter). […] The number of rotations was counted with an automated rotometer, in which each 180° turn was counted as a rotation.
Test compounds were suspended in 0.3% sodium carboxymethylcellulose and administered orally at a dose of 1 mg/kg 30 minutes before the injection of apomorphine (0.1 mg/kg, s.c.). The counts of rotations were summed up every 5 minutes for 150 minutes after apomorphine administration. The total rotation counts induced by apomorphine (0.1 mg/kg, s.c.) with and without a test compound were statistically compared, using the same animals. Rats were allowed to rest more than 5 days between each experiment. Statistical comparison of the values was carried out by Sign-Wilcoxon test.

Data set [2] deals with MPTP-treated C57BL/6 mice. Description: Effect on locomotor activity in Parkinson's disease model in mice (MPTP). The class given is in vivo. Conditions: MPTP (+), test compound 2.5 mg/kg orally; 30 minutes starting 30 minutes after administration. On the procedure: The experiment was performed by using several groups of 7-weeks-old male C57BL/6 mice (weighing 20 to 24 g, Japan SLC), each group consisting of 8 mice. MPTP (Aldrich Chemical Co., Inc.) dissolved in a physiological saline solution (Otsuka Pharmaceutical Co., Ltd.) was intraperitoneally administered to each mouse once a day for five consecutive days at a dose of 30 mg/kg. A test compound was suspended in injectable distilled water (Otsuka Phamaceutical Co., Ltd.) containing Tween 80 [polyoxyethylene (20) sorbitan monooleate]. L-DOPA (Kyowa Hakko Kogyo Co., Ltd.) was suspended in 0.3% CMC (sodium carboxylmethylcellulose) and bromocriptine was suspended in injectable distilled water. Thirty minutes after the final MPTP administration, the test compound suspensions and the control suspension [injectable distilled water (Otsuka Pharmaceutical Co., Ltd.) containing Tween 80] containing no test compound were orally administered to separate groups of the mice (0.1 ml per 10 g of body weight). […] Statistical comparison of the values was carried out by Student's t-test.

In data set [3] the test system is Haloperidol-Induced Catalepsy. In words: Effect on haloperidol-induced catalepsy. In kind it is in vivo, mice. A digest of the protocol: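 Mice got haloperidol 1.0 mg/kg i.p. in 0.3% CMC, then test compounds orally 1 hr later in 0.3% CMC or Tween 80/water. Catalepsy was scored on a 4.5 cm-high bar 1 hr after dosing; remission meant score ≤4 points. ED₅₀ came from Probit analysis.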

A further data set deals with T1, A₁ receptor (Cavia porcellus, UniProt P47745).
T1 construct: from tissue; host or cells: guinea pig cerebrum membrane preparation
T1 sequence (P47745 1-326): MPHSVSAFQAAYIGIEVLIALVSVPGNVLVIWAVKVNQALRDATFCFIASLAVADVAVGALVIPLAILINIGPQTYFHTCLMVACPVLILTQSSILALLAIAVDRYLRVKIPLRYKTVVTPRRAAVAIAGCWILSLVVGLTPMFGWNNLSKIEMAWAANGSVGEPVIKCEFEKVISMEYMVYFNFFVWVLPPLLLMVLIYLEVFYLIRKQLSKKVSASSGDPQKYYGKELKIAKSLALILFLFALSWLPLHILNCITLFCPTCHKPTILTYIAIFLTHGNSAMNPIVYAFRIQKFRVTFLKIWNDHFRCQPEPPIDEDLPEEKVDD
Description: Adenosine A₁ receptor binding test (³H-CHA binding). Also on record: species or system guinea pig. Conditions: guinea pig cerebrum.

A further data set deals with dd-strain male mice. Description: Acute toxicity test (minimum lethal dose, oral). The class given is in vivo. Conditions: oral administration, three mice per group, mortality seven days after administration. On the procedure: Test compounds were orally administered to groups of dd-strain male mice weighing 20 ± 1 g, each group consisting of three mice. Seven days after the administration, minimum lethal dose (MLD) of each compound was determined by observing the mortality.

Another data set deals with T2, A₂ receptor (Rattus norvegicus, UniProt P30543).
T2 construct: from tissue; host or cells: rat corpus striatum membrane preparation
Description: Adenosine A₂ receptor binding test (³H-NECA binding).

Where [4] appears, read: read-out: Inhibition (%) A₂ Receptor.

T2 sequence (P30543 whole entry): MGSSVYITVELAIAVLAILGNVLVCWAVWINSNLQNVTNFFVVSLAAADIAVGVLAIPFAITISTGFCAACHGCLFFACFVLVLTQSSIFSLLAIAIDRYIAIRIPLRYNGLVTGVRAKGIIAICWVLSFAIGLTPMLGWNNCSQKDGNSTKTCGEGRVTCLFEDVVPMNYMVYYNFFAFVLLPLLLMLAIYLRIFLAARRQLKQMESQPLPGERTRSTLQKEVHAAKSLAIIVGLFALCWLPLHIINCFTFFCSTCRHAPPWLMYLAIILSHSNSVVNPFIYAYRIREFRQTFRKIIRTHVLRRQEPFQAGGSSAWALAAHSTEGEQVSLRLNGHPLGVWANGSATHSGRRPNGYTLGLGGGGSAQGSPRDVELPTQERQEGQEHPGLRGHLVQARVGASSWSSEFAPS

For orientation: inhibition means how much of the control response was suppressed. In general, Ki refers to a measure of affinity in units of concentration, obtained from inhibition or displacement. A low value points to a stronger hold on the target. On to `CCn1c(=O)c2c(nc(/C=C/c3ccc(OC)c(OC)c3OC)n2C)n(CC)c1=O` [Compound 8, (E)-1,3-Diethyl-7-methyl-8-(2,3,4-trimethoxystyryl)xanthine], for which the “total amount of rotations (average count ± S.E.M.) test compound + apomorphine” value in data set [1] is given as 1406 ± 155 count. In addition, the “Amount of Active Movements (average count ± S.E.M)” value in data set [2] turned out to be 800 ±156.8 count. Further, the ED50 in data set [3] (Mus musculus, 1 h, ten mice at each dose, effective = catalepsy score 3 or less, Probit analysis, oral, read-out: ED₅₀) was 0.23 mg/kg. Moreover, in data set [3] (of five mice, catalepsy score not more than 4 points, 10 mg/kg orally), the “Number of the Animals Showing Remission” value came out at 5. In addition, the “Remission Rate (%)” value in data set [3] (rate of decrease in total score based on control group, 10 mg/kg orally) is reported as 92%. Further, the “Total Score” value in data set [3] (total catalepsy score of five mice (25 points at the full), 10 mg/kg orally, haloperidol 1.0 mg/kg i.p.) is 2. The inhibition at 100 µM on A₁ receptor (10⁻⁴M) came out at 94%. This compound also displayed an inhibition at 10 µM at A₁ receptor (10⁻⁵M) of 89%. In the data set with dd-strain male mice, this compound gave an MLD greater than 300 mg/kg. Moreover, at A₂ receptor (setting [4]), the inhibition at 0.1 µM turned out to be 80%, the inhibition at 1 µM turned out to be 99%, the inhibition at 10 µM was determined as 95% and the inhibition at 100 µM was 74%. This compound also had a Ki on A₂ receptor (³H-NECA binding) of 3.9 nM.
